# pIC50: −log10 of the molar value. Read-outs that look alike come from different tables or passages of the source.
# What was measured:
# [1] = tested on: A2780cisR; test: Ovarian carcinoma cytotoxicity assay; assay type: cell-based, human; settings: Homo sapiens, A2780cisR
# Procedure: (§1) Compounds of the invention (and Anthramycin as a comparison) were evaluated for their cytotoxic activity in ovarian cell lines by Dr Lloyd R. Kelland's group at The Institute of Cancer Research, Sutton, UK. The five cell lines investigated were SKOV-3, A2780/A2780cisR and CH1/CH1cisR (cis R denotes that the cell line is resistant to cisplatin).
# (§2) Single viable cells were seeded in growth medium (160 μL) in […] microtitre plates and allowed to attach overnight. […] After 96 hours, the medium was removed and the remaining cells fixed by exposure to 10% trichloroacetic acid on ice for 30 minutes. The wells were then washed 3-4 times with tap water, air dried overnight and treated with 100 μL of sulphorhodamine B (0.4%) dissolved in 1% acetic acid. Staining was allowed to continue for 10-15 minutes, then the wells were washed 3-4 times with 1% acetic acid, air dried and then added to Tris base (100 μL of 10 mM). Plates were then shaken and absorbance readings at 540 nm were determined using a plate reader. By using the Quattro-Pro software package, the IC50 values were calculated from plots of concentration versus percentage absorbance (compared with 8 untreated wells).
# [2] = tested on: A2780; test: Ovarian carcinoma cytotoxicity assay; assay type: cell-based, human; settings: Homo sapiens
# Procedure: as §1, §2
# [3] = tested on: MDA-N; test: NCI in vitro cytotoxicity screen; assay type: cell-based; settings: Homo sapiens, 48 h, read-out: LC50
# Procedure: (§3) The National Cancer Institute (NCI), Bethesda, Md., USA has available an in vitro cytotoxicity screen which consists of approximately 60 human tumour cell lines against which compounds are tested at a minimum of five concentrations each differing 10-fold. A 48 hour continuous exposure protocol is used, where cell viability or growth is estimated with an SRB protein assay.
# (§4) The test compounds were evaluated against approximately 60 human tumour cell lines. The NCI screening procedures were described in detail by Monks and co-workers (Monks, A et al., Journal of the National Cancer Institute, 1991, 83, 757). Briefly, cell suspensions were diluted according to the particular cell type and the expected target cell density (5000-40,000 cells per well based on cell growth characteristics), and added by pipette (100 μL) into 96-well microtitre plates. The cells were allowed a preincubation period of 24 hours at 37° C. for stabilisation. Dilutions at twice the intended test concentration were added at time zero in 100 μL aliquots to the wells. The test compounds were evaluated at five 10-fold dilutions (10^−4, 10^−5, 10^−6, 10^−7 and 10^−[…]). The test compounds were incubated for 48 hours in 5% CO2 atmosphere and 100% humidity. The cells were then assayed using the sulphorhodamine B assay. A plate reader was used to read the optical densities and a microcomputer processed the readings into LC50 values, which is the dosage required to kill half of the cells.
# [4] = tested on: COLO 205; test: NCI in vitro cytotoxicity screen; assay type: cell-based; settings: Homo sapiens, COLO 205, 48 h, read-out: LC50
# Procedure: as §3, §4
# [5] = tested on: UACC-257; test: NCI in vitro cytotoxicity screen; assay type: cell-based; settings: Homo sapiens, UACC-257, 48 h, read-out: LC50
# Procedure: as §3, §4
# [6] = tested on: SK-MEL-5; test: NCI in vitro cytotoxicity screen; assay type: cell-based; settings: Homo sapiens, SK-MEL-5, 48 h, read-out: LC50
# Procedure: as §3, §4
# [7] = tested on: UACC-62; test: NCI in vitro cytotoxicity screen; assay type: cell-based; settings: Homo sapiens, UACC-62, 48 h, read-out: LC50
# Procedure: as §3, §4
# [8] = tested on: NCI-H23; test: NCI in vitro cytotoxicity screen; assay type: cell-based; settings: Homo sapiens, NCI-H23, 48 h, read-out: LC50
# Procedure: as §3, §4
# [9] = tested on: HCC-2998; test: NCI in vitro cytotoxicity screen; assay type: cell-based; settings: Homo sapiens, HCC 2998, 48 h, read-out: LC50
# Procedure: as §3, §4
# [10] = tested on: human tumour cells cultivated in hollow fibres implanted in mice; test: NCI Hollow Fibre Assay; assay type: in vivo
# From the text: The Biological testing Branch of the Developmental Therapeutics Program of the NCI has adopted a preliminary in vivo screening tool for assessing the potential anticancer activity of compounds identified by the large scale in vitro cell screen. For these assays, human tumour cells are cultivated in polyvinylidene (PVDF) hollow fibres, and a sample of each cell line is implanted into each of two physiologic compartments (intraperitoneal and subcutaneaous) in mice. Each test mouse received a total of 6 fibres (3 intraperitoneally and 3 subcutaneously) representing 3 distinct cancer cell lines. These mice are treated with potential antitumour compounds at each of 2 test doses by the intraperitoneal route using a QD×4 treatment schedule. Vehicle controls consist of 6 mice receiving the compound diluent only. The fibre cultures are collected on the day following the last day of treatment. To assess anticancer effects, the viable cell mass is determined for each of the cell lines using a formazyn dye (MTT) conversion assay. From this, the % T/C can be calculated using the average optical density of compound treated samples divided by the average optical; density of the vehicle controls. In addition, the net increase in cell mass can be determined for each sample, as a sample of fibre cultures are assessed for viable cell mass on the day of implantation into mice. Thus, the cytostatic and cytocidal capacities of the test compound can be assessed.
# Generally, each compound is tested against a minimum of 12 human cancer cell lines. This represents a total of 4 experiments since each experiment contains 3 cell lines. The data are reported as % T/C for each of the 2 compound doses against each of the cell lines with separate values calculated for the intraperitoneal and subcutaneous samples.
# Compounds are selected for further in vivo testing in standard subcutaneous xenograft models on the basis of several hollow fibre assay criteria. These include: (1) a % T/C of 50 or less in 10 of the 48 possible test combinations (12 cell lines×2 sites×2 Compound doses); (2) activity at a distance (intraperitoneal drug/subcutaneous culture) in a minimum of 4 of the 24 possible combinations; and/or (3) a net cell kill of 1 or more of the cell lines in either implant site. To simplify evaluation, a points system has been adopted which allows rapid evaluation of the activity of a given compound. For this, a value of 2 is assigned for each compound dose which results in a 50% or greater reduction in viable cell mass. The intraperitoneal and subcutaneous samples are scored separately so that criteria (1) and (2) can be evaluated. Compounds with a combined IP+SC score of 20, a SC score of 8 or a net cell kill of one or more cell lines are referred for xenograft testing. […] In addition to these criteria, other factors (e.g. unique structure, mechanism of action) may result in referral of a compound for xenograft testing without the compound meeting these criteria.
# [11] = tested on: CH1; test: Ovarian carcinoma cytotoxicity assay; assay type: cell-based; settings: Homo sapiens
# Procedure: as §1, §2
# [12] = tested on: SKOV-3; test: Ovarian carcinoma cytotoxicity assay; assay type: cell-based; settings: Homo sapiens
# Procedure: as §1, §2
# [13] = tested on: CH1cisR; test: Ovarian carcinoma cytotoxicity assay; assay type: cell-based; settings: Homo sapiens, CH1cisR
# Procedure: as §1, §2
# [14] = tested on: SK-MEL-28; test: NCI in vitro cytotoxicity screen; assay type: cell-based; settings: Homo sapiens, SK-MEL-28, 48 h, read-out: LC50
# Procedure: as §3, §4
# [15] = tested on: MALME-3M; test: NCI in vitro cytotoxicity screen; assay type: cell-based; settings: Homo sapiens, Malme-3M, 48 h, read-out: LC50
# Procedure: as §3, §4
# [16] = tested on: LOX IMVI; test: NCI in vitro cytotoxicity screen; assay type: cell-based; settings: Homo sapiens, 48 h, read-out: LC50
# Procedure: as §3, §4
# [17] = tested on: MDA-MB-435; test: NCI in vitro cytotoxicity screen; assay type: cell-based; settings: Homo sapiens, MDA-MB-435, 48 h, read-out: LC50
# Procedure: as §3, §4
# [18] = tested on: RXF 393; test: NCI in vitro cytotoxicity screen; assay type: cell-based; settings: Homo sapiens, RXF 393, 48 h, read-out: LC50
# Procedure: as §3, §4
# [19] = tested on: NCI-H522; test: NCI in vitro cytotoxicity screen; assay type: cell-based; settings: Homo sapiens, NCI-H522, 48 h, read-out: LC50
# Procedure: as §3, §4
# [20] = tested on: SK-MEL-2; test: NCI in vitro cytotoxicity screen; assay type: cell-based; settings: Homo sapiens, SK-MEL-2, 48 h, read-out: LC50
# Procedure: as §3, §4
# [21] = tested on: M14; test: NCI in vitro cytotoxicity screen; assay type: cell-based; settings: Homo sapiens, M14, 48 h, read-out: LC50
# Procedure: as §3, §4
# [22] = tested on: HCT-116; test: NCI in vitro cytotoxicity screen; assay type: cell-based; settings: Homo sapiens, HCT-116, 48 h, read-out: LC50
# Procedure: as §3, §4
# [23] = tested on: 786-0; test: NCI in vitro cytotoxicity screen; assay type: cell-based; settings: Homo sapiens, 786-0, 48 h, read-out: LC50
# Procedure: as §3, §4
# [24] = tested on: NCI-H460; test: NCI in vitro cytotoxicity screen; assay type: cell-based; settings: Homo sapiens, NCI-H460, 48 h, read-out: LC50
# Procedure: as §3, §4
# [25] = tested on: approximately 60 human tumour cell lines; test: NCI in vitro cytotoxicity screen, whole panel; assay type: cell-based; settings: CNS panel
# Procedure: as §3
# as §4, with “The test compounds were incubated for 48 hours in 5% CO2 atmosphere and 100% humidity. The cells were then assayed using the sulphorhodamine B assay.” left out
# [26] = cisplatin-resistant, 96 hours, sulphorhodamine B, read-out: IC50 A2780cisR
# [27] = A2780, 96 hours, sulphorhodamine B, read-out: IC50 A2780
# [28] = CH1, 96 hours, sulphorhodamine B, read-out: IC50 CH1
# [29] = SK-OV-3, 96 hours, sulphorhodamine B, read-out: IC50 Skov3
# [30] = cisplatin-resistant, 96 hours, sulphorhodamine B, read-out: IC50 CH1cisR
# [31] = 96 h, read-out: IC50 A2780cisR, cisplatin-resistant, 96 hours, sulphorhodamine B
# [32] = CH1, 96 h, read-out: IC50 CH1, 96 hours, sulphorhodamine B
SMILES,"pIC50 [1, 26]","pIC50 [2, 27]",CC50 [3],CC50 [4],CC50 [5],CC50 [6],CC50 [7],CC50 [8],CC50 [9],"pIC50 [11, 28]","pIC50 [12, 29]","pIC50 [13, 30]",CC50 [14],CC50 [15],CC50 [17],CC50 [18],CC50 [19],CC50 [20],CC50 [21],"pIC50 [1, 31]",other results
"C=C1C[C@H]2C=Nc3cc(OCc4ccccc4)c(OC)cc3C(=O)N2C1 [UP2004 (70), (11aS)-8-Benzyloxy-7-methoxy-2-methylidene-1,2,3,11a-tetrahydro-5H-pyrrolo[2,1-c][1,4]benzodiazepin-5-one]",6.70,7.54,9 µM,3.9 µM,7.3 µM,7.8 µM,5.3 µM,7.6 µM,5.5 µM,7.77,6.46,7.09,–,–,–,–,–,–,–,–,"Total score ([10]; combined IP+SC score): 18; IP score ([10]; intraperitoneal fibres, 2 points per dose giving 50% or greater reduction in viable cell mass): 8; SC score ([10]; subcutaneous fibres, 2 points per dose giving 50% or greater reduction in viable cell mass): 10"
"COc1ccc2c(c1)C(=O)N1CCC[C@H]1C=N2 (stereo in doubt) [UP2068 (96), 7-methoxy-1,2,3,11a-tetrahydro-5H-pyrrolo[2,1-c][1,4]benzodiazepin-5-one]",6.18,6.33,6.3 µM,–,–,–,–,–,–,6.28,6.12,6.38,9.6 µM,8.3 µM,8.3 µM,6.3 µM,8.5 µM,8.1 µM,6.5 µM,–,CC50 [16]: 9.7 µM
"COc1cc2c(cc1OCc1ccccc1)N=C[C@@H]1CC(CCOC(C)=O)=CN1C2=O [UP2051 (31), (11aS)-2-(Acyloxy-2-ethyl)-8-benzyloxy-7-methoxy-1,2,3,11a-tetrahydro-5H-pyrrolo[2,1-c][1,4]benzodiazepin-5-one]",–,–,–,–,–,–,–,9.3 µM,5.2 µM,–,–,–,–,5.1 µM,–,0.8 µM,–,7.6 µM,–,6.57,"pIC50 ([2]; A2780, 96 h, read-out: IC50 A2780, 96 hours, sulphorhodamine B): 7.00; pIC50 [11, 32]: 6.98; pIC50 ([12]; SK-OV-3, 96 h, read-out: IC50 Skov3, 96 hours, sulphorhodamine B): 6.34; pIC50 ([13]; 96 h, read-out: IC50 CH1cisR, cisplatin-resistant, 96 hours, sulphorhodamine B): 6.80"
COc1cc2c(cc1OCc1ccccc1)N=C[C@@H]1CC(CCO)=CN1C2=O [UP2052 (33)],–,7.15,–,–,–,–,–,–,0.8 µM,–,6.98,7.43,–,–,–,–,3.1 µM,0.5 µM,2.7 µM,6.98,"CC50 [22]: 1.1 µM; CC50 [23]: 3 µM; CC50 [24]: 3 µM; pIC50 [11, 32]: 7.05"
"O=C1c2cc(-c3ccccc3)ccc2N=C[C@@H]2CCCN12 [UP2026 (136), (11aS)-7-Phenyl-1,2,3,11a-tetrahydro-5H-pyrrolo[2,1-c][1,4]benzodiazepin-5-one]",5.43,5.94,–,8.8 µM,7.7 µM,9 µM,6.6 µM,–,6.4 µM,5.82,5.31,5.84,7.1 µM,6.1 µM,6.3 µM,7.6 µM,7.8 µM,7.4 µM,7.8 µM,–,cytotoxicity in the CNS cell line panel [25]: inactive

# Reference: US7049311B1, “Pyrrolbenzodiazepines” (Spirogen Limited, priority 1998, dated 2006)
